The source of these data is patent US6831199B1, “Pyrimidine compounds and derivatives thereof” (G. D. Searle & Co., priority 1995, dated 2004).

Where a name gives a salt, the structure may show the parent alone. Some results are limits rather than exact numbers.

For assay [1], the target named is T1, Human vitronectin receptor (αvβ3) (Homo sapiens, UniProt P05106+P06756).
T1 construct: Human vitronectin receptor (αvβ3) was purified from human placenta; from tissue; host or cells: human placenta
Nature of the assay: Vitronectin adhesion assay (solid phase receptor assay, competition with biotinylated vitronectin). In kind it is binding. Conditions: read-out: AvB3 IC50. The method in brief:
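Purified human αvβ3 coated overnight at 4 °C in TBS with 1.0 mM Ca++, Mg++, Mn++, pH 7.4; compounds (top final 1.0×10^−4 M) competed with 1 nM biotinylated vitronectin for 2 h at room temperature. Bound ligand detected by HRP anti-biotin/OPD at A450; values normalized to no-competitor controls, four-parameter curve fit.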

Assay [2] has as its target T2, Human fibrinogen receptor (αIIbβ3) (Homo sapiens, UniProt P05106+P08514).
T2 construct: Human fibrinogen receptor (αIIbβ3) was purified from outdated platelets; from tissue; host or cells: outdated human platelets
Nature of the assay: Purified IIb/IIIa receptor assay (solid phase receptor assay, competition with biotinylated vitronectin). The format is binding. Particulars: read-out: IIb/IIIa IC50. The procedure, abridged:
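Competition format: 1 nM biotinylated vitronectin plus test compound (highest 1.0×10^−4 M), 2 h at room temperature on wells coated with platelet-derived αIIbβ3. Buffer was TBS containing 1.0 mM Ca, Mg, Mn, pH 7.4. HRP anti-biotin readout at 450 nm; normalized to maximum binding, four-parameter curve fit.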

On to `N=C(N)Nc1cccc(C(=O)NCC(=O)NC(CC(=O)O)c2cccc(OCC(=O)O)c2)c1` (stereo not drawn) [Example 260, β-[[2-[[[3-[(aminoiminomethyl)amino]phenyl]carbonyl]amino]acetyl]amino]-3-(carboxymethoxy)benzenepropanoic acid, trifluoroacetate salt], for which the IC50 in assay [1] was 0.74 nM; in assay [2], 65.3 nM.

Turning to `CCOC(=O)CC(NC(=O)CNC(=O)c1cccc(N/C(=N\C#N)NCc2cccnc2)c1)c1ccccc1` (stereo not drawn) [Example 145, ethyl β-[[2-[[[3-[[(cyanoimino)[3-pyridinylmethyl)amino]methyl]amino]phenyl]carbonyl]amino]acetyl]amino]benzenepropanoate, trifluoroacetate salt], the IC50 in assay [1] is 2720 nM; in assay [2], more than 100000 nM.

`CC(NC(=O)Nc1cccc(C(=O)NCC(=O)NC(CC(=O)O)c2cccnc2)c1)c1ccccc1` (stereo not drawn) [Example 271, β-[[2-[[[3-[[[(1-phenylethyl)amino]carbonyl]amino]phenyl]carbonyl]amino]acetyl]amino]pyridine-3-propanoic acid, trifluoroacetate salt]: the figures for the IC50 in assay [1] and in assay [2] were 29.9 nM and 4610 nM, respectively.

Take `COc1cc(C(CC(=O)O)NC(=O)CNC(=O)c2cccc(NC(=N)N)c2)cc2c1OCO2` (stereo not drawn) [Example 256, β-[[2-[[[3-[(aminoiminomethyl)amino]phenyl]carbonyl]amino]acetyl]amino]-4-methoxy-1,3-benzodioxole-6-propanoic acid, trifluoroacetate salt]: the IC50 in assay [1] was 0.58 nM; in assay [2], 22 nM.

As for `C/N=C(\NCc1ccncc1)Nc1cccc(C(=O)NCC(=O)NC(CC(=O)O)c2ccc(F)cc2)c1` (racemic) [Example 299, (±)4-fluoro-β-[[2-[[[3-[[[(4-pyridinylmethyl)amino](methylimino)methyl]amino]phenyl]carbonyl]amino]acetyl]amino]benzenepropanoic acid, trifluoroacetate salt], the IC50 in assay [1] is 109 nM; in assay [2] it was 927 nM.

For “ethyl 3S-[[2-[[[3-[[(cyanoimino)(methylamino)methyl]amino]phenyl]carbonyl]amino]acetyl]amino]-4-pentynoate [Example 140]”, the figures for the IC50 in assay [1] and in assay [2] were 4590 nM and more than 100000 nM, respectively.

Regarding `O=C(O)CC(NC(=O)CNC(=O)c1cccc(NC2=NCCCN2)c1)c1cc(Cl)cc(Cl)c1O` (racemic) [Example 237, (±)3,5-dichloro-2-hydroxy-β-[[2-[[[3-[(1,4,5,6-tetrahydropyrimidin-2-yl)amino]phenyl]carbonyl]amino]acetyl]amino]benzenepropanoic acid, trifluoroacetate salt, monohydrate], the values for the IC50 in assay [1] and in assay [2] were 0.57 nM and 1950 nM, respectively.

For `O=C(O)CC(NC(=O)CNC(=O)c1cccc(NC(=O)NCc2ccncc2)c1)c1cccnc1` (stereo not drawn) [Example 266, β-[[2-[[[3-[[[(4-pyridinylmethyl)amino]carbonyl]amino]phenyl]carbonyl]amino]acetyl]amino]pyridine-3-propanoic acid, (bis)trifluoroacetate salt], the results for the IC50 in assay [1] and in assay [2] were 0.77 nM and 1810 nM, respectively.

For the molecule `COc1cc(C(CC(=O)O)NC(=O)CNC(=O)c2cccc(NC(=N)N)c2)cc(Br)c1OC` (racemic) [Example 262, (±)β-[[2-[[[3-[(aminoiminomethyl)amino]phenyl]carbonyl]amino]acetyl]amino]-3-bromo-4,5-dimethoxybenzenepropanoic acid, trifluoroacetate salt], the IC50 in assay [1] amounted to 1.24 nM; in assay [2] it was 172 nM.

Take `N=C(N)Nc1cccc(C(=O)NCC(=O)NC(CC(=O)O)c2cc(Br)c(O)c(Br)c2)c1` (stereo not drawn) [Example 276, β-[[2-[[[3-[(aminoiminomethyl)amino]phenyl)carbonyl]amino]acetyl]amino]-3,5-dibromo-4-hydroxybenzenepropanoic acid, trifluoroacetate salt]: the IC50 in assay [1] was determined as 1.25 nM; in assay [2], 111 nM.

Consider `O=C(O)CC(NC(=O)CNC(=O)c1cccc(NC2=NCCCN2)c1)c1cc(Cl)cc(Br)c1` (racemic) [Example 215, (±)3-bromo-5-chloro-β-[[2-[[[3-[(1,4,5,6-tetrahydropyrimidin-2-yl)amino]phenyl]carbonyl]amino]acetyl]amino]-benzenepropanoic acid, trifluoroacetate salt], for which the figures for the IC50 in assay [1] and in assay [2] were 0.41 nM and 656 nM, respectively.

As to `O=C(O)CC(NC(=O)CNC(=O)c1cccc(NC(=O)NCc2ccccn2)c1)c1cccnc1` (stereo not drawn) [Example 268, β[[2-[[[3-[[[(2-pyridinylmethyl)amino]carbonyl]amino]phenyl]carbonyl]amino]acetyl]amino]pyridine-3-propanoic acid, (bis)trifluoroacetate salt], the values for the IC50 in assay [1] and in assay [2] were 0.67 nM and 7430 nM, respectively.

With `N=C(N)Nc1cccc(C(=O)NCC(=O)NC(CC(=O)O)c2cncc(Br)c2)c1` (racemic) [Example 235, (±)β-[[2-[[[3-[(aminoiminomethyl)amino]phenyl]carbonyl]amino]acetyl]amino]-5-bromopyridine-3-propanoic acid, bis(trifluoroacetate)salt, monohydrate], the IC50 was 0.54 nM in assay [1] and 29.9 nM in assay [2].

For `N=C(N)Nc1cc(NC(=N)N)cc(C(=O)NCC(=O)NC(CC(=O)O)c2cc(Cl)cc(Cl)c2)c1` (stereo not drawn) [Example 291, β-[[2-[[[3,5-bis[(aminoiminomethyl)amino]phenyl]carbonyl)amino]acetyl]amino]-3,5-dichlorobenzenepropanoic acid, bis(trifluoroacetate)salt], the IC50 in assay [1] was 1.24 nM; in assay [2], 37.4 nM.

As for `Cc1ccc(C(CC(=O)O)NC(=O)CNC(=O)c2cccc(NC(=N)N)c2)s1` (stereo not drawn) [Example 253, β-[[2-[[[3-[(aminoiminomethyl)amino]phenyl]carbonyl]amino]acetyl]amino]-5-methylthiophene-2-propanoic acid, trifluoroacetate salt], the figures for the IC50 in assay [1] and in assay [2] were 0.84 nM and 109 nM, respectively.

For `N=C(N)Nc1cccc(C(=O)NCC(=O)NC(CC(=O)O)c2cccc(-c3ccccc3)c2)c1` (stereo not drawn) [Example 242, β-[[2-[[[3-[(aminoiminomethyl)amino]phenyl]carbonyl]amino]acetyl]amino][1,1′-biphenyl]-3-propanoic acid], the figures for the IC50 in assay [1] and in assay [2] were 2.28 nM and 533 nM, respectively.

As for `N=C(N)Nc1cccc(C(=O)NCC(=O)NC(CC(=O)O)c2cc(F)cc(C(F)(F)F)c2)c1` (racemic) [Example 208, (±)β-[[2-[[[3-[(aminoiminomethyl)amino]phenyl]carbonyl]amino]acetyl]amino]-3-fluoro-5-(trifluoromethyl)benzenepropanoic acid, trifluoroacetate salt], the IC50 is 1.15 nM in assay [1] and 277 nM in assay [2].

As for `C#C[C@H](CC(=O)O)NC(=O)CNC(=O)c1cccc(N/C(=N\C#N)NCc2ccc(S(N)(=O)=O)cc2)c1` [Example 158, 3S-[[2-[[[3-[[[[(4-(aminosulfonyl)phenylmethyl]amino](cyanoimino)methyl]amino]phenyl]carbonyl]amino]acetyl]amino]-4-pentynoic acid, trifluoroacetate salt, monohydrate], the results for the IC50 in assay [1] and in assay [2] were 10.1 nM and 547 nM, respectively.

Turning to `N=C(N)Nc1cccc(C(=O)NCC(=O)NC(CC(=O)O)c2ccc(F)cc2)c1` (stereo not drawn) [Example 363, β-[[2-[[[3-[(aminoiminomethyl)amino]phenyl]carbonyl]amino]acetyl]amino]-4-fluorobenzenepropanoic acid, trifluoroacetate salt], the IC50 in assay [1] came to 2.12 nM; in assay [2], 509 nM.

For `C/N=C(/Nc1cccc(C(=O)NCC(=O)NC(CC(=O)O)c2cc(Cl)cc(Cl)c2)c1)NC(C)C` (racemic) [Example 296, (±)3,5-dichloro-β-[[2-[[[3-[[[(1-methylethyl)amino](methylimino)methyl]amino]phenyl]carbonyl]amino]acetyl]amino]benzenepropanoic acid, trifluoroacetate salt], the IC50 in assay [1] worked out at 404 nM; in assay [2] it was 9450 nM.

For the molecule `CCOc1cc(OCC)cc(C(CC(=O)O)NC(=O)CNC(=O)c2cccc(NC(=N)N)c2)c1` (stereo not drawn) [Example 249, β-[[2-[[[3-[(aminoiminomethyl)amino]phenyl]carbonyl]amino]acetyl]amino]-3,5-diethoxybenzenepropanoic acid, trifluoroacetate salt], the IC50 turned out to be 5.31 nM in assay [1] and 244 nM in assay [2].

Take `CCN/C(=N\C#N)Nc1cccc(C(=O)NCC(=O)NC(CC(=O)OCC)c2ccccc2)c1` (stereo not drawn) [Example 135, ethyl β-[[2-[[[3-[[(cyanoimino)(ethylamino)methyl]amino]phenyl]carbonyl]amino]acetyl]amino]benzenepropanoate]: the IC50 in assay [1] is 50700 nM; in assay [2], more than 100000 nM.

Take `N=C(N)Nc1cccc(C(=O)NCC(=O)NC(CC(=O)O)c2ccc(Br)c(Br)c2)c1` (racemic) [Example 207, (±)β-[[2-[[[3-[(aminoiminomethyl)amino]phenyl]carbonyl]amino]acetyl]amino]-3,4-dibromobenzenepropanoic acid, trifluoroacetate salt]: the IC50 in assay [1] came to 0.9 nM; in assay [2], 148 nM.
